Results from patent publication US12150933B2, “IL-8 inihibitors for use in the treatment of some urological disorders” (DOMPÉ FARMACEUTICI S.P.A., priority 2015, dated 2024).
Where a name gives a salt, the structure may show the parent alone.

What was measured:
[1] = tested on: CYP-induced visceral pain; assay: Chronic preventive treatment in CYP-induced visceral pain model in rats; comparison with Mesna; type: in vivo, rat; conditions: 12.5 mg/kg i.p. several times a day for 3 days
Description: The effect of chronic preventive administration of Compd. 1 in a visceral pain model induced by repeated administration of cyclophosphamide (CYP) in conscious rats was evaluated.
The oral dose of 7 mg/kg of Compd. 1 was chosen on the basis of previous evaluations. Compd. 1 or vehicle was orally administered to animals twice daily (according to the PK profile of the molecule) for 7 days. Mesna_or vehicle was intraperitoneally administered several times a day for 3 days (when CYP was administered).
Repeated treatment with CYP (75 mg/kg i.p. for 3 times, every 3rd day), induced a strong decrease in withdrawal thresholds to noxious stimulus measured at the level of low abdomen and hind-paws. Nociceptive hypersensitivity was evaluated. In the control group, nociceptive thresholds of abdomen and hind-paws were not altered after the treatment with vehicle.
Behavioral testing was performed at 4 different times: • before CYP administration (in order to acquire basal values) • after CYP administration and before treatment with the tested compound, to verify the pathology (in order to acquire pre-treatment values) • after treatment, 42 or 48 hours from the last administration of Compd. 1 or Mesna.

CYP-induced cystitis [2] = assay: Microscopic examination of urinary bladders after chronic preventive administration; type: in vivo, rat; conditions: preventive Mesna treatment
Excerpt: At the end of the study, the urinary bladders were opened, placed in 10% buffered formalin and stored at room temperature until completion of hystomorphological analysis (see Example 6 below).
At the end of the efficacy study of chronic preventive administration, the urinary bladders were opened, placed in 10% buffered formalin and stored at room temperature until hystomorphological analysis.
Treatment with Compd. […] 1.

[3] = tested on: CYP-induced visceral pain; assay: Acute administration in CYP-induced visceral pain in rats (Von Frey mechanical threshold); type: in vivo, rat; conditions: 2 hours after administration, versus pre-treatment
Description: Female Sprague Dawley rats (Crl:CD(SD)BR, 250-350 g) from Charles River Italy were used in these experiments. Animals were housed with free access to food and water and maintained on a forced 12 hours light-dark cycle at 22-24° C. for at least one week before the experiments were carried out. The animals were handled according to internationally accepted principles for care of laboratory animals (E.E.C. Council Directive 86/609, […]. 18, 1986). Cyclophosphamide, 75 mg/kg i.p. for 3 times, every 3rd day, was dissolved in distilled water and administered to animals by i.p. route (volume 5 mL/kg). Appropriate weight of Compd. 1 or Compd. 2 was dissolved in saline, all doses of test compounds were administered by oral gavage (volume 2 mL/kg). On the day of the experiment, each rat was placed individually in a clear plastic testing box with a grid floor and allowed to acclimatize for at least 10 min. Visceral sensitivity in response to mechanical stimuli was determined using Von Frey monofilaments (1-2-4-8-15-26-60-100 g) applied in the lower abdominal area (close to the urinary bladder) and on both hind paws plantar surface (to evaluate referred pain). Each Von Frey monofilament was applied 5 times at the level of abdomen and 3 times at the level of each paw, in an ascending order of strength at interval of 5 sec. A stimulus-induced response was considered positive when the paw was sharply withdrawn, paw licking occurred, or the animal flinched upon removal of the filament. Behavioral testing on animals was performed at 3 different times: • before CYP administration (in order to acquire basal values) • after CYP administration, before treatment with the test compound, to verify the pathology (in order to acquire pre-treatment values) • after CYP administration, after treatment (in order to acquire post-treatment values) […] The test was performed in blind. Compd. 1 and Compd. […]

CYP-induced cystitis [4] = assay: Cystometrographic recordings in conscious rats with CYP-induced cystitis; type: in vivo, rat; conditions: 24 hours after CYP 175 mg/kg i.p.
Description: Female Sprague Dawley rats (Crl:CD(SD)BR, 250-350 g bw) from Charles River Italy were used in these experiments. Animals were housed with free access to food and water and maintained on a forced 12 hours light-dark cycle at 22-24° C. for at least one week before the experiments were carried out.
Rats, anaesthetized with equithensin solution (2 ml/kg i.p.), were placed in a supine position and an approximately 10 mm midline incision was made in the shaved and cleaned abdominal wall. The urinary bladder was gently freed from adhering tissues, emptied and then cannulated, via an incision at the dome, with a polyethylene cannula (Portex, ID 0.58 mm, OD 0.96 mm), which was permanently sutured with silk thread. The cannula was exteriorized through a subcutaneous tunnel in the retroscapular area, where it was connected with a plastic adapter, in order to avoid the risk of removal by the animal.
For drugs testing, rats were utilized one day after catheter implantation at about 24 hours after administrations CYP.
On the day of the experiment, the rats (fasted overnight) were placed in Bollman's cages; after a stabilization period of 20 min, the free tip of the cannula was connected by a T-shape tube to a pressure transducer and to a peristaltic pump for a continuous infusion of saline solution (room temperature) into the urinary bladder, at the constant rate of 0.05 ml/min. This procedure, termed cystometry, allows the detection of continuous cycles of filling and voiding of the bladder named cystometrograms.
From the cystometrograms acquired by the Biopac System and recorded on a PC the Bladder Volume Capacity (BVC) parameter was calculated as volume capacity, defined as volume (in ml) infused into the bladder and necessary to induce detrusor contraction followed micturition.
Basal BVC was evaluated as mean values from the cystometrograms recorded in 30-60 minutes of time prior the treatment (“BASAL”). Then the bladder infusion was stopped, the animals were treated orally with the test compound or vehicle and, after restarting continuous bladder filling with saline for 4 or 5 hours, BVC values after administration were collected.
BVC parameters were recorded from the cystometrogram over a 4/5 hours period post-dose.

CXCR1/CXCR2 = conditions: cited from earlier work
[5] = tested on: CYP-induced visceral pain; assay: Chronic administration in CYP-induced visceral pain in rats (Von Frey withdrawal threshold); type: in vivo, rat; conditions: 40-80 mg/kg p.o., systemic
Description: Cyclophosphamide, 75 mg/kg i.p. for 3 times, every 3rd day, was dissolved in distilled water and administered to animals by i.p. route (volume 5 mL/kg). Appropriate weight of Compd. 1 or Compd. 2 was dissolved in saline, all doses of test compounds were administered by oral gavage (volume 2 mL/kg).
On the day of the experiment, each rat was placed individually in a clear plastic testing box with a grid floor and allowed to acclimatize for at least 10 min. Visceral sensitivity in response to mechanical stimuli was determined using Von Frey monofilaments (1-2-4-8-15-26-60-100 g) applied in the lower abdominal area (close to the urinary bladder) and on both hind paws plantar surface (to evaluate referred pain).
Each Von Frey monofilament was applied 5 times at the level of abdomen and 3 times at the level of each paw, in an ascending order of strength at interval of 5 sec. A stimulus-induced response was considered positive when the paw was sharply withdrawn, paw licking occurred, or the animal flinched upon removal of the filament.
• before CYP administration (in order to acquire basal values) • after CYP administration and before treatment, to verify the pathology (in order to acquire pre-treatment values) • after chronic treatment, about 18 hours after last administration of Compd. 1 (in order to acquire post-treatment values). • after chronic treatment, 2 hours after the last administration of Compd. 1 (in order to acquire post-treatment values after chronic+acute administration)
Compd. 1 or vehicle was administered p.o. to animals twice daily (according to the pharmacokinetic profile of the compound) for 6 days, starting from 24 hours after last treatment with CYP, when painful symptoms were well established. Nociceptive hypersensitivity was evaluated about 18 hours after the last administration of Compd. 1 (or vehicle) in order to evaluate the effect of chronic administration, or a further dosage of compound was administered and evaluation carried out 2 hours thereafter, in order to compare with acute protocol, described in Example 1.

O=S(=O)(O)CCS [Mesna, 2-mercaptoethene sulfate, reference compound]
CYP-induced nociceptive behavior [1]: did not produce a reduction of CYP-induced nociceptive behavior | protective effect on the CYP-induced cystitis (CYP-induced cystitis [2]): did not exert any protective effect

C[C@@H](C(=O)NS(C)(=O)=O)c1ccc(OS(=O)(=O)C(F)(F)F)cc1 [Compd. 2, R(−)-2-[(4′-trifluoromethanesulfonyloxy)phenyl]-N-methanesulfonyl propionamide]
mechanical threshold, abdomen and hind paws ([3]; 10 mg/kg p.o.): statistically significant increase in mechanical threshold only in the abdomen | mechanical threshold, abdomen and hind paws ([3]; 30 mg/kg p.o.): statistically significant increase in mechanical threshold in both the abdomen and paws area | bladder volume capacity (BVC) (CYP-induced cystitis [4]; 20 mg/kg oral): showed efficacy on BVC | bladder volume capacity (BVC) (CYP-induced cystitis [4]; 30 mg/kg oral): showed efficacy on BVC | CXCR1/CXCR2 inhibition (CXCR1/CXCR2): potent and selective dual CXCR1/CXCR2 non-competitive allosteric inhibitor

NCC1(CC(=O)O)CCCCC1 [gabapentin, reference compound]
antinociceptive effect [5]: partial maximum antinociceptive effect
